Laboratory results reported in patent publication US10765647B2, “Composition for treating diabetes, containing extract of yukmijihwangtang” (COMPREHENSIVE AND INTEGRATIVE MEDICINE INSTITUTE, priority 2013, dated 2020).

What was measured:
[1] = test system: STZ-induced diabetes rat; experiment: STZ-induced diabetes rats: antidiabetic effect (blood sugar, pancreas); format: in vivo, Sprague-Dawley (SD) rats; conditions: vs STZ control, YMJHT 400 mg/kg
Description: (§1) As the laboratory animals, Sprague-Dawley (SD), Slc:SD rats (6-week-old females, SLC, Shizuoka, Japan) were used, an experiment method was briefly illustrated in FIG. 5A, and the design of experimental groups is shown in FIG. 5B.
(§2) 105 SD rats were purchased, and 21 days after STZ administration, only rats having uniform body weights ([…]) and blood sugar levels (257˜358 mg/dl) were selected. Among those, 8 rats per group were used in the experiment, and separate 8 rats were also prepared as the intact vehicle control (body weight: 200˜262 g; blood sugar level: 88˜100 mg/dl).
(§3) STZ was diluted with 50 mM citrate buffer (pH 6.0), and the resultant diluent was peritoneally administered once at a dose of 60 mg/kg/5 ml to induce diabetes, and in the intact vehicle control, instead of STZ, the same dose of citrate buffer was solely administered in the same route.
(2) Antidiabetic effect: Change in blood sugar level, morphological change in pancreas tissue—changes in the number and diameter of pancreatic islets, and numerical changes in insulin and glucagon immunoreactive cells
(§4) To clarify degrees of inducing diabetes and diabetic complications, blood sugar levels was measured at 21 days after the STZ administration and 28 days after the administration of a candidate material, and then a difference between them was estimated. Also, to minimize a difference between organ weights depending on a body weight, an absolute weight was measured, and then a ratio to the body weight, that is, a relative weight, was calculated.

[2] = test system: STZ-induced diabetes rat; experiment: STZ-induced diabetes rats: ocular protecting effect; format: in vivo, Sprague-Dawley (SD) rats; conditions: vs STZ control; single treated: metformin 500 mg/kg, YMJHT 400 mg/kg; daily 28 days
Description: as §1, §2, §3

[3] = test system: STZ-induced diabetes rat; experiment: STZ-induced diabetes rats: immune activity effect (thymus, spleen); format: in vivo, Sprague-Dawley (SD) rats; conditions: vs STZ control; single treated: metformin 500 mg/kg, YMJHT 400 mg/kg; daily 28 days
Description: as §1, §2, §3
(6) Immune activity effect: thymus and spleen weights and histopathological findings—changes in spleen thickness, the number of white pulps and diameter, changes in thymus lobules and cortex thicknesses
as §4

[4] = test system: STZ-induced diabetes rat; experiment: STZ-induced diabetes rats: kidney protecting effect; format: in vivo, Sprague-Dawley (SD) rats; conditions: vs STZ control; single treated: metformin 500 mg/kg, YMJHT 400 mg/kg; daily 28 days
Description: as §1, §2, §3
(4) Kidney protecting effect: kidney weights, changes in blood BUN and creatinine, histopathological findings on kidney—numbers of degenerated renal tubules and glomeruli
as §4

[5] = test system: STZ-induced diabetes rat; experiment: STZ-induced diabetes rats: antioxidative defense system in kidney; format: in vivo, Sprague-Dawley (SD) rats; conditions: vs STZ control; single treated: metformin 500 mg/kg, YMJHT 400 mg/kg; daily 28 days
Description: as §1, §2, §3
(8) Change in antioxidative defense system in kidney: lipid peroxidation in kidney (nM of malondialdehyde (MDA)/g protein), endogenous antioxidant—glutathione (GSH) content (nM/g protein), antioxidant enzyme—Changes in catalase and superoxide dismutase (SOD) activities (U/mg protein)

[6] = test system: STZ-induced diabetes rat; experiment: STZ-induced diabetes rats: antihyperlipidemic effect; format: in vivo, Sprague-Dawley (SD) rats; conditions: vs STZ control; single treated: metformin 500 mg/kg, YMJHT 400 mg/kg; daily 28 days
Description: as §1, §2, §3

[7] = test system: STZ-induced diabetes rat; experiment: STZ-induced diabetes rats: liver protecting effect; format: in vivo, Sprague-Dawley (SD) rats; conditions: vs STZ control; single treated: metformin 500 mg/kg, YMJHT 400 mg/kg; daily 28 days
Description: as §1, §2, §3
(3) Liver protecting effect: changes in the liver weight, blood AST and ALT contents, histopathological findings on the liver—(Degeneration rate of the liver: ratio of degenerated liver cells per mm^2 of hepatocyte, number of liver cells: number of liver cells observed per mm^2 of hepatocyte).
as §4

[8] = test system: STZ-induced diabetes rat; experiment: STZ-induced diabetes rats: body weight and body weight gain; format: in vivo, Sprague-Dawley (SD) rats; conditions: vs STZ control, YMJHT 400 mg/kg
Description: as §1, §2, §3
(1) Change in body weight: Body weight gains during diabetes induction and administration of a candidate material for 28 days

[9] = in vivo; conditions: male, SD, rat, plasma, po, 500 mg/kg
[10] = before administration, single treated groups: metformin 500 mg/kg
[11] = single treated: metformin 500 mg/kg, daily 28 days

## CN(C)C(=N)N=C(N)N [metformin]
[1]; [10]
  Blood sugar level at 21 days after the STZ administration, change: 1.68%
[1]; [11]
  Blood sugar level at 28 days after the STZ administration, change: −27.25%
  Blood sugar variation from 21 days after the STZ administration to 28 days after the administration of a candidate material, change: −59.39%
  Mean diameters of the pancreatic islets, change: 97.80%
  Numbers of insulin immunoreactive cells in the pancreatic islet, change: 202.99%
  Numbers of pancreatic islets per unit area, change: 120.93%
  Numbers of the glucagon immunoreactive cells in the pancreatic islet, change: −27.78%
  Pancreas absolute weights, change: 7.95%
  Relative pancreas weights with respect to the body weight, change: −7.49%
[2]
  Lens damage score, change: −33.33%
  Number of blood vessels present in an internal limiting membrane, change: −44.55%
  Observer-based scores for cataract, change: −38.89%
  Quantitative image scores for cataract, change: −40.56%
  Thickness of the damaged part of the lens, change: −46.34%
  Thickness of the inner nuclear layer in the retina, change: 44.29%
  Thickness of the plexiform layer in the retina, change: 32.03%
  Total thickness of the retina, change: 33.45%
[3]
  Absolute weight of the spleen, change: 31.35%
  Absolute weight of the thymus, change: 73.03%
  Mean diameter of the white pulp, change: 101.18%
  Number of white pulps per unit area (100 mm^2), change: 76.53%
  Relative weight of the spleen, change: 12.17%
  Relative weight of the thymus, change: 50.71%
  Total thickness of the spleen, change: 36.43%
  Total thickness of the thymus cortex, change: 78.00%
  Total thickness of the thymus lobules, change: 198.88%
[4]
  Absolute weight of the kidney, change: −21.29%
  Blood BUN content, change: −31.69%
  Blood creatinine content, change: −31.29%
  Number of degenerated glomeruli, change: −36.94%
  Number of degenerated renal tubules, change: −29.90%
  Relative weight of the kidney, change: −32.41%
[5]
  Catalase activity in the renal tissue, change: 48.59%
  Content of the endogenous antioxidant in the renal tissue, GSH, change: 64.65%
  MDA content in the kidney tissue (lipid peroxidation indicator), change: −32.56%
  SOD activity in the renal tissue, change: 51.47%
[6]
  Blood HDL content, change: 27.12%
  Blood LDL content, change: −29.08%
  Total cholesterol content in blood, change: −30.57%
  Triglyceride content in blood, change: −29.72%
[7]
  Absolute weight of the liver, change: −14.38%
  Blood ALT content, change: −32.72%
  Blood AST content, change: −32.82%
  Hepatic degeneration rate, change: −29.61%
  Number of mean hepatocytes per unit area, change: 60.58%
  Relative weight of the liver, change: −27.69%
[8]; [10]
  Body weight gains during the diabetes induction, change: 45.45%
[8]; [11]
  Body weight gains during the 28-day administration, change: 193.31%
[9]
  Cmax: 20200 ± 3420 ng/mL
